Test system: primordial germ cells in gonads from female mouse fetuses at 12.5 dpc
Assay: In vitro organ culture of gonad (secondary follicle formation)
Format: cell-based
Details: (vii) FBS/1 μM MPP group, 1 μM day 5-11
Description: For the medium of the organ culture, the basal medium supplemented with FBS (Gibco, Thermo Fisher Scientific Inc.), SPS (SAGE In vitro Fertilization), the estrogen receptor antagonist, 7α, 17β-[9-([4,4,5,5,5-pentafluoropentyl]sulfinyl)nonyl]estra-1,3,5(10)-triene-3,17-diol; ICI 182,780 (ICI; Tocris Bioscience), 4-hydroxytamoxifen (Sigma-Aldrich), and MPP (Methylpiperidino pyrazole; Cayman Chemical) were added at the indicated concentrations for each experimental group below. The α-MEM medium (Gibco, Thermo Fisher Scientific Inc.) supplemented with 1.5 mM 2-O-α-d glucopyranosyl-1-ascorbic acid (Tokyo Chemical Industry), 10 units/mL penicillin, and 10 μg/mL streptomycin (Sigma-Aldrich) was used as a basal medium (referred to the basal medium hereafter as α-MEM).
ICI 182,780 and 4-hydroxytamoxifen was prepared as follows. ICI 182,780 and 4-hydroxytamoxifen was diluted to 100 mM using DMSO, and cryopreserved stock was prepared. MPP was diluted to 10 mM using DMSO, and cryopreserved stock was prepared. 1 mM solutions of ICI 182, 780 and 4-hydroxytamoxifen were prepared by diluting the 100 mM stocks 100-fold with DMSO just before use and were added to the medium at the indicated final concentrations for each experimental group. MPP was added to the medium at 1 μM as the final concentration just before use.
The gonads for the organ culture were collected with mesonephros or without mesonephros from female mouse fetuses at 12.5 dpc (FIG. 1a). 2.2 ml of the medium was added to each 6-well culture plate used for the organ culture. Transwell®-COL membrane (3.0-μm pore size, 24-mm diameter; Corning) was put on each well of the 6-well culture plate. The gonads were transferred on the membrane and were cultured for 17 days at 37° C. under 5% CO2 and 95% air. Approximately half of the medium in each well was replaced with fresh medium every other day. In the example in which the gonad was cultured with mesonephros, mesonephros was removed from the gonad at day 7 of the organ culture.
The in vitro organ culture of the gonads was performed according to the following conditions described below. The gonads were cultured for total 17 days in each conditions below (FIG. 2):
(i) culture for the complete 17 days period in 10% FBS containing α-MEM (α-MEM+FBS; FBS group);
(ii) culture for the complete 17 days period in 10% SPS containing α-MEM (α-MEM+SPS; SPS group);
(iii) culture for the complete 17 days period in 10% KSR containing α-MEM (α-MEM+KSR; KSR group);
(iv) culture in 10% FBS containing α-MEM for 4 days with a shift to 10% SPS containing α-MEM for 6 days from day 5 and a shift to 10% FBS containing α-MEM until day 17 from day 11 (αMEM+FBS/SPS; FBS/SPS group);
(v) culture in 10% FBS containing α-MEM for 4 days with a shift to 10% FBS containing α-MEM with the addition of 10 nM, 100 nM, 1 μM, 5 μM, or 10 μM (final concentration) ICI for 6 days from day 5 and a shift to 10% FBS containing α-MEM until day […] (αMEM+FBS/10 nM ICI; FBS/10 nM ICI group, αMEM+FBS/100 nM ICI; FBS/100 nM ICI group, αMEM+FBS/1 μM ICI; FBS/1 μM ICI group, αMEM+FBS/5 μM ICI; FBS/5 μM ICI group, or αMEM+FBS/10 μM ICI; FBS/10 μM ICI group);
(vi) culture in 10% FBS containing α-MEM for 4 days with a shift to 10% FBS containing α-MEM with the addition of 1 μM (final concentration) 4-hydroxytamoxifen for 6 days from day 5 and a shift to 10% FBS containing α-MEM until day 17 from day 11 (αMEM+FBS/1 μM Tamoxifen; FBS/1 μM Tamoxifen group);
(vii) culture in 10% FBS containing α-MEM for 4 days with a shift to 10% FBS containing α-MEM with the addition of 1 μM (final concentration) MPP for 6 days from day 5 and a shift to 10% FBS containing α-MEM until day 17 from day 11 (αMEM+FBS/1 μM MPP; FBS/1 μM MPP group).
Vitrification and warming were conducted as follows by reference to Wang, X. et al., “Successful in vitro culture of pre-antral follicles derived from vitrified murine ovarian tissue: oocyte maturation, fertilization, and live births.” Reproduction 141, 183-191 (2011). […]

Cc1c(-c2ccc(O)cc2)nn(-c2ccc(O)cc2)c1-c1ccc(OCCN2CCCCC2)cc1 [MPP, 4-[1-(4-hydroxyphenyl)-4-methyl-5-[4-[2-(1-piperidinyl)ethoxy]phenyl]-1H-pyrazol-3-yl]-phenol]
secondary follicles collected from one ovary: 15

— patent US11773368B2, “Culture method for differentiating primordial germ cells into functionally mature oocytes” (TOKYO UNIVERSITY OF AGRICULTURE, priority 2015, dated 2023)
